Experimental data published in the NIST ThermoML archive (doi:10.1016/j.fluid.2017.12.001).
Numbers after ± are expanded uncertainties.

Experiment: xn = mol fraction of the nth substance listed
Settings: 100.9 kPa, Liquid; for viscosity: Concentric cylinders viscometry; for speed of sound: Single path-length method; for mass density: Vibrating tube method

CCCC(=O)[O-].CC[NH2+]CC [diethylammonium butanoate] + O
Settings | mass density [kg/m3] | speed of sound [m/s] | viscosity [mPa·s]
323.15 K, x1 = 0.0122 | – | – | 0.84 ± 0.02
323.15 K, x1 = 0.0123 | 990.45 ± 0.4 | 1618.6 ± 0.22 | –
323.15 K, x1 = 0.0451 | – | – | 1.72 ± 0.02
323.15 K, x1 = 0.0453 | 991.08 ± 0.4 | 1724.2 ± 0.33 | –
323.15 K, x1 = 0.0999 | – | – | 3.8 ± 0.03
323.15 K, x1 = 0.1005 | 984.28 ± 0.41 | 1708.8 ± 0.3 | –
323.15 K, x1 = 0.143 | – | – | 5.75 ± 0.03
323.15 K, x1 = 0.1439 | 971.05 ± 0.41 | 1672.4 ± 0.35 | –
323.15 K, x1 = 0.2051 | – | – | 8.98 ± 0.05
323.15 K, x1 = 0.2067 | 964.37 ± 0.41 | 1612.6 ± 0.41 | –
323.15 K, x1 = 0.3064 | – | – | 14.26 ± 0.07
323.15 K, x1 = 0.3096 | 949.4 ± 0.43 | 1531.7 ± 0.48 | –
323.15 K, x1 = 0.4879 | – | – | 19.64 ± 0.13
323.15 K, x1 = 0.4951 | 926.37 ± 0.47 | 1446.2 ± 0.63 | –
323.15 K, x1 = 0.6684 | – | – | 20.46 ± 0.16
323.15 K, x1 = 0.6812 | 918.45 ± 0.55 | 1384.7 ± 0.75 | –
323.15 K, x1 = 0.7974 | 900.35 ± 0.61 | 1379.5 ± 0.84 | –
323.15 K, x1 = 0.974 | 895.2 ± 0.74 | 1343.3 ± 0.98 | 18.14 ± 0.19
325.65 K, x1 = 0.0122 | – | – | 0.8 ± 0.02
325.65 K, x1 = 0.0451 | – | – | 1.62 ± 0.02
325.65 K, x1 = 0.0999 | – | – | 3.53 ± 0.03
325.65 K, x1 = 0.143 | – | – | 5.31 ± 0.03
325.65 K, x1 = 0.2051 | – | – | 8.24 ± 0.04
325.65 K, x1 = 0.3064 | – | – | 12.94 ± 0.07
325.65 K, x1 = 0.4879 | – | – | 17.73 ± 0.11
325.65 K, x1 = 0.6684 | – | – | 18.49 ± 0.14
325.65 K, x1 = 0.974 | – | – | 16.45 ± 0.17
328.15 K, x1 = 0.0122 | – | – | 0.75 ± 0.02
328.15 K, x1 = 0.0451 | – | – | 1.52 ± 0.02
328.15 K, x1 = 0.0999 | – | – | 3.29 ± 0.03
328.15 K, x1 = 0.143 | – | – | 4.92 ± 0.03
328.15 K, x1 = 0.2051 | – | – | 7.58 ± 0.04
328.15 K, x1 = 0.3064 | – | – | 11.79 ± 0.06
328.15 K, x1 = 0.4879 | – | – | 16.02 ± 0.1
328.15 K, x1 = 0.6684 | – | – | 16.76 ± 0.13
328.15 K, x1 = 0.974 | – | – | 14.94 ± 0.15
330.65 K, x1 = 0.0122 | – | – | 0.72 ± 0.02
330.65 K, x1 = 0.0451 | – | – | 1.44 ± 0.02
330.65 K, x1 = 0.0999 | – | – | 3.07 ± 0.03
330.65 K, x1 = 0.143 | – | – | 4.57 ± 0.03
330.65 K, x1 = 0.2051 | – | – | 6.99 ± 0.04
330.65 K, x1 = 0.3064 | – | – | 10.77 ± 0.06
330.65 K, x1 = 0.4879 | – | – | 14.54 ± 0.09
330.65 K, x1 = 0.6684 | – | – | 15.23 ± 0.12
330.65 K, x1 = 0.974 | – | – | 13.61 ± 0.14
333.15 K, x1 = 0.0122 | – | – | 0.69 ± 0.02
333.15 K, x1 = 0.0451 | – | – | 1.36 ± 0.02
333.15 K, x1 = 0.0999 | – | – | 2.87 ± 0.02
333.15 K, x1 = 0.143 | – | – | 4.25 ± 0.03
333.15 K, x1 = 0.2051 | – | – | 6.46 ± 0.04
333.15 K, x1 = 0.3064 | – | – | 9.86 ± 0.05
333.15 K, x1 = 0.4879 | – | – | 13.24 ± 0.09
333.15 K, x1 = 0.6684 | – | – | 13.86 ± 0.11
333.15 K, x1 = 0.974 | – | – | 12.38 ± 0.13
335.65 K, x1 = 0.0122 | – | – | 0.66 ± 0.02
335.65 K, x1 = 0.0451 | – | – | 1.29 ± 0.02
335.65 K, x1 = 0.0999 | – | – | 2.7 ± 0.02
335.65 K, x1 = 0.143 | – | – | 3.96 ± 0.03
335.65 K, x1 = 0.2051 | – | – | 5.98 ± 0.03
335.65 K, x1 = 0.3064 | – | – | 9.05 ± 0.05
335.65 K, x1 = 0.4879 | – | – | 12.07 ± 0.08
335.65 K, x1 = 0.6684 | – | – | 12.64 ± 0.1
335.65 K, x1 = 0.974 | – | – | 11.33 ± 0.12
338.15 K, x1 = 0.0122 | – | – | 0.64 ± 0.02
338.15 K, x1 = 0.0451 | – | – | 1.22 ± 0.02
338.15 K, x1 = 0.0999 | – | – | 2.53 ± 0.02
338.15 K, x1 = 0.143 | – | – | 3.7 ± 0.03
338.15 K, x1 = 0.2051 | – | – | 5.55 ± 0.03
338.15 K, x1 = 0.3064 | – | – | 8.33 ± 0.05
338.15 K, x1 = 0.4879 | – | – | 11.03 ± 0.07
338.15 K, x1 = 0.6684 | – | – | 11.56 ± 0.09
338.15 K, x1 = 0.974 | – | – | 10.37 ± 0.11
340.65 K, x1 = 0.0122 | – | – | 0.61 ± 0.02
340.65 K, x1 = 0.0451 | – | – | 1.16 ± 0.02
340.65 K, x1 = 0.0999 | – | – | 2.39 ± 0.02
340.65 K, x1 = 0.143 | – | – | 3.46 ± 0.03
340.65 K, x1 = 0.2051 | – | – | 5.16 ± 0.03
340.65 K, x1 = 0.3064 | – | – | 7.68 ± 0.04
340.65 K, x1 = 0.4879 | – | – | 10.11 ± 0.07
340.65 K, x1 = 0.6684 | – | – | 10.59 ± 0.08
340.65 K, x1 = 0.974 | – | – | 9.48 ± 0.1
343.15 K, x1 = 0.0122 | – | – | 0.59 ± 0.02
343.15 K, x1 = 0.0451 | – | – | 1.1 ± 0.02
343.15 K, x1 = 0.0999 | – | – | 2.25 ± 0.02
343.15 K, x1 = 0.143 | – | – | 3.24 ± 0.03
343.15 K, x1 = 0.2051 | – | – | 4.81 ± 0.03
343.15 K, x1 = 0.3064 | – | – | 7.09 ± 0.04
343.15 K, x1 = 0.4879 | – | – | 9.28 ± 0.06
343.15 K, x1 = 0.6684 | – | – | 9.64 ± 0.08
343.15 K, x1 = 0.974 | – | – | 8.7 ± 0.09
